The text below walks through data of paper PMC5047629, “Synthesis, Pharmacological Profile and Docking Studies of New Sulfonamides Designed as Phosphodiesterase-4 Inhibitors” (PLoS ONE, 2016).

For series [1], the system named is A/J mice. Description: Murine model of asthma with 4 weekly OVA provocations (days 14, 21, 28, 35), interventional treatment. It is filed as in vivo. The note with it: LASSBio-448 100 mg/Kg oral. The procedure:
Sensitization was performed by means of a subcutaneous injection of 50 μg ovalbumin (OVA) (grade V; Sigma-Aldrich, St. Louis, MO) adsorbed to 5 mg of Al(OH)3 in 0.2 mL of sterile 0.9% NaCl (saline) at days 0 and 14. Intranasal OVA provocations (25 μg /25 μL saline) were performed at 19 and 20 days post-sensitization under isofluorane volatile anaesthesia (Cristalia, São Paulo, Brazil). Alternatively, sensitization as described above were done at days 0 and 7, while the OVA provocations were carried out at days 14, 21, 28 and 35 [39]. Negative control groups were represented by sensitized mice in which allergen was replaced by saline as a challenge. Treatments were done orally 1 h before provocations. Test compounds were dissolved in saline containing 0.2% Tween 80. All solutions were freshly prepared immediately before use. Analyses were performed 24 h after the last provocation.
Airflow and transpulmonary pressure were recorded with a Buxco pulmonary mechanics processing system (Buxco Electronics, Sharon, CT), which calculated resistance (cmH2O.s/ml) and dynamic lung compliance (mL/cmH2O) in each breath cycle. Elastance was calculated as the inverse of compliance values. Mice were anesthetized with nembutal (60 mg/kg), and the neuromuscular activity was blocked with bromide pancuronium (1 mg/kg). Animals were allowed to stabilize for 5 min and increasing concentrations of methacholine (3–27 mg/mL) were aerosolized for 5 min each. Baseline pulmonary parameters were assessed with aerosolized phosphate buffer solution (PBS).
The EPO activity present in lung tissue was determined with a colorimetric assay as described by Strath et al. (1985), with minor modifications. Briefly, the lungs were cannulated and perfused with saline/EDTA (20 mM). Then, lung samples were homogenized in buffer solution containing 0.5% HBSS (Hank´s balanced solution, pH 7.4; Sigma Chemical Co.) using a tissue homogenizer (T25 ultra-Tirrax). Samples were centrifuged at 1300 xg for 10 min at 4°C. Red blood cells were removed by hypotonic and hypertonic lysis. The suspended cells were then centrifuged again at 1300 xg for 10 min at 4°C. The pellet was then suspended in a solution of HBSS containing 0.5% of HTAB (hexadecyltrimethylamonium bromide; Sigma Chemical Co.) (pH 7.4). This suspension was subjected to heat shock for lysing the cells in three cycles freeze/thawed. At the end, the supernatants were collected, centrifuged at 12000 rpm for 15 min at 4°C and assayed spectrophotometrically for EPO determination. Fifty μl of the samples were placed, and then 50 μl of the substrate (1.5 mM o-phenylenediamine and 6.6 mM hydrogen peroxide in 0.05 mM Tris-HCl buffer, pH 8.0) was added and, after a 30 min incubation at room temperature, 50 μl of H2SO4 (4M) was added to stop the reaction. The optical density reading was performed on the SpectraMax M5 spectrophotometer (Molecular Devices) at a wavelength of 492 nm.
Right lungs tissue samples from saline- and OVA-exposed mice were homogenized in PBS containing 0.05% Triton X-100 and a protease inhibitor cocktail (Complete®, Hoffmann-La Roche Ltd, Basel, Switzerland). After centrifugation at 13000xg for 10 min and 4°C, the levels of IL-13, IL-5, IL-4 and eotaxin-2 were quantified in the supernatant, using commercially available ELISA kits (DuoSet; R&D Systems, Minneapolis, MN, USA). The results were expressed as picograms of cytokine per right lung.

In series [2] the test system is A/J mice. As to the kind of experiment: Duration of xylazine/ketamine anesthesia (behavioral correlate of emesis). Type of series: in vivo. The method, then: This assessment was carried out as previously reported. […] The animals were placed in dorsal position and their spontaneous return to the prone position was used as an endpoint to determine anesthesia duration.

A further series deals with T1, PDE2A (Homo sapiens, UniProt O00408).
T1 construct: CEREP
T1 sequence (O00408 whole entry): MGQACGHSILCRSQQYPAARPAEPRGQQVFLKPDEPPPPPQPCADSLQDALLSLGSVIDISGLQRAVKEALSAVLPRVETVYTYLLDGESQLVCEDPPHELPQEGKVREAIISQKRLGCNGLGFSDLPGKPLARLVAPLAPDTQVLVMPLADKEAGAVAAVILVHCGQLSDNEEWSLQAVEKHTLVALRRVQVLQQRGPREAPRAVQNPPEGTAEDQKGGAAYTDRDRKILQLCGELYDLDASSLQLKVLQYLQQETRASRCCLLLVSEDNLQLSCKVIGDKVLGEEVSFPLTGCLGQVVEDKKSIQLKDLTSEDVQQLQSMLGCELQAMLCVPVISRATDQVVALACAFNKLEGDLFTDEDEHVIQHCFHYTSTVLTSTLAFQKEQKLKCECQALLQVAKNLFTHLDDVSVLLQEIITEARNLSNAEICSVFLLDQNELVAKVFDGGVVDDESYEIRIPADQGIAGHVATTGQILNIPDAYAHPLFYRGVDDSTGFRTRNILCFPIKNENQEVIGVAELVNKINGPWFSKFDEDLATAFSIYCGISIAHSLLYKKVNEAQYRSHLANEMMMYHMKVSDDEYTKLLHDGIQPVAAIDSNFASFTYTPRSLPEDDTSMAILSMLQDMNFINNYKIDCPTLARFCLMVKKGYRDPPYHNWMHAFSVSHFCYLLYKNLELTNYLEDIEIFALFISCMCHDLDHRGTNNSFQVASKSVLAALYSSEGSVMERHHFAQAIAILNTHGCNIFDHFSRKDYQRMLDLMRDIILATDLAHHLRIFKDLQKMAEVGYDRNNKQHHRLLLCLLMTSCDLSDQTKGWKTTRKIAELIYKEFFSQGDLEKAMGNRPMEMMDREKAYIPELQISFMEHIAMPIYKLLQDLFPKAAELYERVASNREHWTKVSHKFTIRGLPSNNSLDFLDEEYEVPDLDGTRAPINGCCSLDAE
As to the kind of experiment: PDE selectivity profile evaluated by CEREP. It is filed as biochemical. The note with it: 10 μM; data not shown. The method, then: (§1) The selectivity profile of compound 6a (LASSBio-448) toward the human PDE1, PDE2, PDE5-PDE8, PDE10 and PDE11 was evaluated by CEREP.

For the next series, the target named is T2, PDE1B (Homo sapiens, UniProt Q01064).
T2 construct: CEREP
T2 sequence (Q01064 whole entry): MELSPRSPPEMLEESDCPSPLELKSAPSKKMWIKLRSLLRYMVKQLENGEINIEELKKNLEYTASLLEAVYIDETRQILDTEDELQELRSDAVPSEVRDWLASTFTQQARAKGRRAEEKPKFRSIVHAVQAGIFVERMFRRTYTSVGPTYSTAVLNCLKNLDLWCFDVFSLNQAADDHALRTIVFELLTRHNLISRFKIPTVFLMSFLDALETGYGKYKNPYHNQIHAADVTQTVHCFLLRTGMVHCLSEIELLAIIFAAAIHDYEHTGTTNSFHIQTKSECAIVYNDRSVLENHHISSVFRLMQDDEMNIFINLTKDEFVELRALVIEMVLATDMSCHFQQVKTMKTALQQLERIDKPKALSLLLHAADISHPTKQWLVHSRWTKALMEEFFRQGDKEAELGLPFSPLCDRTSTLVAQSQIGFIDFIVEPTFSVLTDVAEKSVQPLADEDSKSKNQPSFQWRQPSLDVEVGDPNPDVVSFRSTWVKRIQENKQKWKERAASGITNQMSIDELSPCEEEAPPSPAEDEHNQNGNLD
Description: PDE selectivity profile evaluated by CEREP. The note with it: 10 μM; data not shown. Type of series: biochemical. The procedure: as §1

The target of the next series is T3, PDE4A (Homo sapiens, UniProt P27815).
T3 construct: purchased MDS PHARMA
T3 sequence (P27815 1-647 isoform P27815-4): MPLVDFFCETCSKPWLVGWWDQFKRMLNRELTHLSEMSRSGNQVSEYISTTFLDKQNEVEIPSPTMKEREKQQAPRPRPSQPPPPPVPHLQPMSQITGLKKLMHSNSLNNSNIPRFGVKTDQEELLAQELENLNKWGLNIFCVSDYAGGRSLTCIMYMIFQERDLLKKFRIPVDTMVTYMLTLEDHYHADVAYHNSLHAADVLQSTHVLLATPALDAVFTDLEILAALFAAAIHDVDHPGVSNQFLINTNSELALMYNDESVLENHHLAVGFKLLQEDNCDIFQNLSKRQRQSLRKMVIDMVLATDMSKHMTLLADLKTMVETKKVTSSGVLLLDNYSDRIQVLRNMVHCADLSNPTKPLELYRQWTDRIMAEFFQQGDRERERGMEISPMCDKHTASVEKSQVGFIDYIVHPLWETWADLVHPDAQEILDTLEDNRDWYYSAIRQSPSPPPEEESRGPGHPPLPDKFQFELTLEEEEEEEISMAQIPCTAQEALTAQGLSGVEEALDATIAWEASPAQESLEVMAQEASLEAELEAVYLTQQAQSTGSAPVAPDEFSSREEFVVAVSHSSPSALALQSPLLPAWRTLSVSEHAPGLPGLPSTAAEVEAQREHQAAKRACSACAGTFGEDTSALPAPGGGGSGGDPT
As to the kind of experiment: PDE4A inhibition, IMAP fluorescence polarization protocol. Type of series: biochemical. The method, then: The enzymatic reactions were carried at room temperature in a 96-well black plate by co-incubating 25 μL of 200 nM FAM-cAMP (R7513), 5 μL of putative inhibitory compounds and 20 μL of the PDE4 isoform dissolved in assay buffer (R7364) for 1 h. All enzymes were obtained from human recombinant sources (MDS PHARMA), whereas the other reagents were purchased from Molecular Devices. […] PDE4 inhibitors were dissolved in dimethyl sulfoxide (DMSO) at a final concentration of 0.1%.
The inhibitory activities of the new sulfonamide derivatives were evaluated for their selectivity against the four isoforms of human PDE4, i.e. PDE4A, PDE4B, PDE4C, and PDE4D, using an IMAP-FP protocol.
Background: In fluorescence polarisation assays a small probe gives low polarisation when free and higher when bound to something large.

The test system of series [3] is guinea-pig tracheal smooth muscle cells. As to the kind of experiment: cAMP intracellular levels in airway smooth muscle cells (radioimmunoassay). Type of series: cell-based. The note with it: 100 μM, S1B Fig. The method, then: Intracellular cAMP concentrations were assayed in primary cultured guinea-pig tracheal smooth muscle cells as reported. Briefly, smooth muscle cells obtained from guinea pig tracheas were cultured in DMEM containing 10% fetal bovine serum, 100 units/ml of penicillin, […] of streptomycin and 2 mM of glutamine for 3 to 7 days. After the third cell splitting, 10^6 cells/well were grown in 24-well plates. At confluence, smooth muscle cells were washed with PBS and incubated with 100 μM LASSBio-448 or forskolin (adenylyl cyclase activator), in the presence or absence of 100 μM SQ22536 (adenylyl cyclase inhibitor) for 30 min. Lysed cells were collected and the intracellular cAMP was evaluated by means of radioimmunoassay (TRK 432–Cyclic AMP^[3H] Biotrak assay system—Amersham Pharmacia Biotech, Buckinghamshire, England) following manufacturer’s guidelines.

[4] abbreviates: rolipram 10 mg/Kg oral, right lung, 24 h after last challenge, vs vehicle, Fig 8.

The structures appear in SMILES notation.

The term inhibition denotes the change of the read-out against control, counted positive when it falls. The term IC50 denotes the concentration at which inhibition is half-maximal. In the case of `COc1ccc(CCNS(=O)(=O)c2cc3c(cc2C)OCO3)cc1OC` [6a (LASSBio-448), N-(3,4-dimethoxyphenethyl)-6-methylbenzo[d][1, 3]dioxole-5-sulfonamide], in the series on A/J mice [1] (interventional, Fig 6), the “extracellular matrix deposition (histology)” value is reported as “sensitive to the interventional treatment” and the “mucus exacerbation (histology)” value is given as “sensitive to the interventional treatment”. In addition, in the series with A/J mice [1] (rolipram 10 mg/Kg oral, Fig 7A), the “airway hyper-reactivity to methacholine, airway resistance” value was “equally effective in inhibiting”. Further, in the series with A/J mice [1] (rolipram 10 mg/Kg oral, Fig 7B), the “airway hyper-reactivity to methacholine, lung elastance” value is recorded as “equally effective in inhibiting”. For the same compound, in the series on A/J mice [1] (setting [4]), the “IL-4 level in lung tissue” value is “reduction in the levels”, the “IL-5 level in lung tissue” value is on record as “reduction in the levels”, the “IL-13 level in lung tissue” value is “reduction in the levels” and the “eotaxin-2 level in lung tissue” value is reported as “reduction in the levels”. Moreover, the “allergen-induced eosinophil accumulation in the lung tissue (eosinophil peroxidase)” value with A/J mice [1] (rolipram 10 mg/kg oral, at third and fourth weeks of challenge, Fig 5) was “impair the progress”. For the same compound, in the series on A/J mice [2] (11 μmol/Kg oral), the “reduction of sleep time (duration of xylazine/ketamine anesthesia)” value worked out at 24.1%. In addition, the “reduction of sleep time (duration of xylazine/ketamine anesthesia)” value with A/J mice [2] (27 μmol/Kg oral) is reported as 26.6%. Besides, in the series with A/J mice [2] (80 μmol/Kg oral), the “reduction of sleep time (duration of xylazine/ketamine anesthesia)” value worked out at 35.5%. Besides, the “fold less pro-emetic than rolipram” value in the series with A/J mice [2] (vs rolipram) was “at least 7 fold”. Moreover, the “inhibition of PDE2A” value against PDE2A is given as “unable to inhibit”. Also, at PDE1B, the “inhibition of PDE1B” value is “unable to inhibit”. Besides, the PDE4A1A inhibition result on PDE4A (1 μM, mean ± SEM, 3 experiments) is “able to inhibit”. At PDE4A (1 μM, mean ± SEM, 3 experiments, read-out: PDE4A1A inhibition), the inhibition at 1 µM was found to be 36.5 ± 0.7%. Besides, the half-inhibitory concentration (IC50) at PDE4A (recombinant enzyme, mean ± SEM of three measurements) amounted to 700 ± 70 nM. Also, in series [3] (levels comparable to forskolin), the “cAMP intracellular levels in cultured tracheal smooth muscle cells” value is recorded as “up-regulated”. For the same compound, in series [3] (pre-treatment with 100 μM SQ22,536), the “cAMP elevating effect after pre-treatment with SQ22,536” value is on record as “clearly abrogated”.
